This is an account of results in US6096874A (Board of Regents, the University of Texas System, priority 1995, dated 2000).

Where two headings read alike, the source gives them in different places.

One data set deals with MCF7 cells. Nature of the data set: MCF7 breast tumor cell growth inhibition, 72 h, MTT tetrazolium dye assay. Format: cell-based, human. As to conditions: for Tumor cell inhibition (in words) / Potency against MCF7 compared with tamoxifen: 72 h; for RP (relative potency): tamoxifen = 100. How it is done: The MCF7 cell line is a human tumor cell line. This cell line was cultured in MEM (Eagles) media in a 5% CO^2 atmosphere with 10% fetal calf serum that had been washed twice with dextran coated charcoal to reduce endogenous estrogen levels. The media was supplemented with 1 mM sodium pyruvate and 100 μm non-essential amino acids. The cell line was screened routinely for myoplasma contamination using the GenProbe kit (Fisher). Cells were trypsinized and plated at a density of 5,000 cells/well in 96 well microtiter plates and allowed to attach and recover for 24 hours.
The media was removed by aspiration and replaced with filter sterilized drug (concentration from 10^-4 M to 10^-5 M) in media. The cells were incubated for 72 hours and then stained using the mTT tetrazolium dye assay of Mosmann^36 except that after the media was removed, the blue formazan product was solubilized in 50 μl/well DMSO.
In general terms: Formazan colour is commonly taken as a measure of viable cells.

The target of data set [1] is T1, estrogen receptor (Sus scrofa, UniProt Q29040).
T1 sequence (Q29040 1-595): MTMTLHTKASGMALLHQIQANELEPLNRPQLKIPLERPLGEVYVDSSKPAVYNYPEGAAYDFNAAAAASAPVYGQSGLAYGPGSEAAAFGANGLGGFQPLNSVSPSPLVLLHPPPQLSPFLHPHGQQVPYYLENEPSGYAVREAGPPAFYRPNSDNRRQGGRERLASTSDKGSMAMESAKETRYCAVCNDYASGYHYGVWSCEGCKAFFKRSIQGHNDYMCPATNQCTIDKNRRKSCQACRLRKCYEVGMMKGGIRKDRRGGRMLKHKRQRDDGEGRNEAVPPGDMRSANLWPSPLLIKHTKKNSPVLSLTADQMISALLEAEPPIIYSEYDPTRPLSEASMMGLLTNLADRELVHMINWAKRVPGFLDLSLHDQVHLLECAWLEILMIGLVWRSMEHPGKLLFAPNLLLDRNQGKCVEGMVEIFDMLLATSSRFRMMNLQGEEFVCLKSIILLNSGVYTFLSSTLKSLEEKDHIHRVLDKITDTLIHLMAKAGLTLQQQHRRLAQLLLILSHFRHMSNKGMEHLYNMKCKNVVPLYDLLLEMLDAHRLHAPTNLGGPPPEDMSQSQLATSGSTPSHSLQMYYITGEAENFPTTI
As to conditions: for RBA (relative binding affinity): tamoxifen = 100; for RBA (IC50 ratio between tamoxifen and competitor): Table 7, tamoxifen printed as 1; for Enhancement of estrogen receptor binding affinity: compared to tamoxifen.
Protocol: A previously reported procedure was modified by the inventors and used for this purpose.^10,11 TEA buffer was used by the Inventors for tissue preparation.
Briefly, uteri (90 gm) were obtained from immature domestic swine (15 kg) was homogenized in Tris buffer (10 mM, pH 7.4) (1 uterus/180 ml), which contained EDTA (1.5 mM) and sodium Azide (3 mM). The homogenate was centrifuged at 100,000 g for 1 hour at 4° C. Uteri cytosol (contains 2% of protein from corresponding uterus tissue) were then pretreated with dextran-coated charcoal as described.^10 Protein concentrations were determined according to the method of Lowry et al.^12
*The relative binding affinity (RBA) for the pig uteri estrogen receptor

Data set [2] can be described thus: Acute/immediate toxicity following i.v. injection in BALB/c mice. The conditions noted are these: for MTD / Maximum dose tolerated: mouse, in vivo, iv; for Mice died: 20 mg/kg i.v. The procedure: Acute toxicity studies were performed in BALB/c female mice with doses tested at 20, 50 and 200 mg/kg (i.v., n=5 mice per dose).
The target of data set [3] is T2, estrogen receptor (Homo sapiens, UniProt P03372).
T2 sequence (P03372 1-595): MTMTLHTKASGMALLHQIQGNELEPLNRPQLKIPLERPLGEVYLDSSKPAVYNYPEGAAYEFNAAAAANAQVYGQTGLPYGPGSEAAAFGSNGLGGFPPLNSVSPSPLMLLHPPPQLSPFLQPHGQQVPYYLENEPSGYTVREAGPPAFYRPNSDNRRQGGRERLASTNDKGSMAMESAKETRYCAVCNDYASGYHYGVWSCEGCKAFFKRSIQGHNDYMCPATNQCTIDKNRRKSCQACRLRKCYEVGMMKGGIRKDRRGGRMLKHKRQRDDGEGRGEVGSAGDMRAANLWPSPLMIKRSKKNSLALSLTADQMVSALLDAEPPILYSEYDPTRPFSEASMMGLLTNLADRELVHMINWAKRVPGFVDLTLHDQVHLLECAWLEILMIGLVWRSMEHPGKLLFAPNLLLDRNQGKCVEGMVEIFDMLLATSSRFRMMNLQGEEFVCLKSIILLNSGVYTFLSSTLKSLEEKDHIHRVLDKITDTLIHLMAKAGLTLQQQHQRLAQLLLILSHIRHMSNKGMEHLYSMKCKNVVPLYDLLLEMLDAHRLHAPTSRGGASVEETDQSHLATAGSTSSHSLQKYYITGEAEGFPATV
The conditions noted are these: cited from earlier work; for Estrogen receptor binding / detection potency (in words): compared to tamoxifen.

For data set [4] the following is noted: compared to tamoxifen; cited from earlier work.
The nature of another data set: in vivo. The conditions noted are these: compared with DTPA-Tamoxifen and DTPA-Vitamin A conjugates. Details: species or system rat. The procedure:
In animal tissue distribution studies, each rate was given 8.9 μCi (0.15 ml) tracer intravenously. The tumor-bearing rats were killed at 1, 3, 6 and 24 h. […] The amount of DES given should occupy tumor estrogen receptor sites. The methods for inducing tumors in rats was as described by those of skill in the art (radiology). […]
Female Fisher 344 rats (250-275 g) (Harlan, Inc., Indianapolis, Ind.) were inoculated with mammary tumor cells using the 13762 tumor cell line (s.c. 10^5 cells/rat). After 14 days, a tumor size of 1-2 cm was observed. For ^131 I-ITX studies, five groups of rats (N=3/group) were anesthetized with ketamine (10-15 mg/rat). The trans ^131 I-ITX was given to four of the five groups (8.9 μCi/rat, i.v.) and biodistribution was studied at 1, 3, 6 and 24 h intervals. In blocking studies, the fifth group of rats was given diethylstilbestrol (DES) (1.2 mg/rat) for 1 h, followed by 8.9 μCi of ^131 I-ITX; biodistribution was studied 6 h later. The tissues were collected at different time intervals. The tissues were weighted and counted for radioactivity. The percent of injected dose per gram of tissue weight was calculated. […]

What is called IC50 is the concentration that gives 50% inhibition.

With `CCN(CC)CCOc1ccc(C(=C(CCCF)c2ccccc2)c2ccccc2)cc1` [Compound VI, N,N-diethyl-fluoromethyltamoxifen], in the data set on MCF7 cells, the “Tumor cell inhibition (in words)” value is reported as “effective as inhibiting a breast tumor cell line”.

For the molecule `CCN(CC)CCOc1ccc(/C(=C(\CCF)c2ccccc2)c2ccccc2)cc1` (single isomer, unassigned) [IV (Cis), N,N-diethyl-fluorotamoxifen], the “Tumor cell inhibition (in words)” value in the data set with MCF7 cells is listed as “effective as inhibiting a breast tumor cell line”; in the data set on MCF7 cells (listed as cis N,N-diethyl-fluoro) it was “more potent than the trans isomers”. In addition, the “RBA (relative binding affinity)” value at estrogen receptor [1] came to 100.

Molecule `CCN(CC)CCOc1ccc(/C(=C(\CCCCl)c2ccccc2)c2ccccc2)cc1` [cis-CITX, chlorotamoxifen] returned an MTD in data set [2] of 50 mg/kg.

For the molecule `CC/C(=C(\c1ccc(F)cc1)c1ccc(OCCN(C)C)cc1)c1ccccc1` [Compound 4-fluoro], on estrogen receptor [3], the “Estrogen receptor binding / detection potency (in words)” value is recorded as “approximately equal activity for estrogen receptor binding affinity”. The “Anti-estrogenic / in vivo activity (in words)” value in data set [4] is reported as “lower anti-estrogenic activity than tamoxifen”.

In data set [2], fluorotamoxifen [cis-^18 F-FTX] showed a Maximum dose tolerated of 50 mg/kg.

As for `CCN(CC)CCOc1ccc(C(=C(CCCI)c2ccccc2)c2ccccc2)cc1` [Compound X, N,N-diethyl-iodomethyltamoxifen], the “Tumor cell inhibition (in words)” value in the data set with MCF7 cells is recorded as “effective as inhibiting a breast tumor cell line”.

In the case of `CC/C(=C(\c1ccc(C)cc1)c1ccc(OCCN(C)C)cc1)c1ccccc1` [Compound 4-methyl], the “Estrogen receptor binding / detection potency (in words)” value on estrogen receptor [3] is on record as “approximately equal activity for estrogen receptor binding affinity”. In addition, in data set [4], the “Anti-estrogenic / in vivo activity (in words)” value is recorded as “lower anti-estrogenic activity than tamoxifen”.

In data set [2], `CCN(CC)CCOc1ccc(/C(=C(/CCCBr)c2ccccc2)c2ccccc2)cc1` [trans-BTX] showed an MTD of 50 mg/kg.

Consider `CC/C(=C(\c1ccc(Cl)cc1)c1ccc(OCCN(C)C)cc1)c1ccccc1` [Compound 4-chloro], for which the “Estrogen receptor binding / detection potency (in words)” value at estrogen receptor [3] was “approximately equal activity for estrogen receptor binding affinity”. Moreover, in data set [4], the “Anti-estrogenic / in vivo activity (in words)” value is listed as “lower anti-estrogenic activity than tamoxifen”.

`CCN(CC)CCOc1ccc(/C(=C(\CCCI)c2ccccc2)c2ccccc2)cc1` [X (cis), N,N-diethyl-iodomethyltamoxifen]: the “Tumor cell inhibition (in words)” value with MCF7 cells is given as “more potent than the trans isomers”. For the same molecule, at estrogen receptor [1], the “RBA (IC50 ratio between tamoxifen and competitor)” value came out at 10; the “Enhancement of estrogen receptor binding affinity” value (shortened to “Enhancement”) was determined as 10 fold; the “RBA (relative binding affinity)” value is reported as 1,000.

With Fluorotamoxifen [(VII) FTX (Cis)], the “RP (relative potency)” value with MCF7 cells was determined as 224.

With `CCN(CC)CCOc1ccc(/C(=C(\CCCI)c2ccccc2)c2ccccc2)cc1` [cis-ITX, iodotamoxifen], the MTD in data set [2] came to 50 mg/kg.

Turning to `CCN(CC)CCOc1ccc(/C(=C(/CCCI)c2ccccc2)c2ccccc2)cc1` [trans-ITX, iodotamoxifen], in data set [2], the Mice died is recorded as 3/4 and the MTD was found to be 8 mg/kg. Also, the Mice died in data set [2] (listed as trans ITX) is listed as 3 out of 4. In data set [2] (i.v.), the “Toxicity (in words)” value is recorded as “lethal effects of transITX were immediate”.

Regarding `NCCc1ccc(NC(=O)CN(CCN(CCN(CC(=O)O)CC(=O)O)CC(=O)O)CC(=O)O)cc1` [DTPA, DTPAp-(amino ethyl) anilide, reference compound], the “Blood clearance and tumor-to-tissue uptake ratios (in words)” value in the data set “in vivo” is “faster blood clearance and less tumor-to-tissue uptake ratios”.

With `CCN(CC)CCOc1ccc(/C(=C(\CCCF)c2ccccc2)c2ccccc2)cc1` [VI (Cis), N,N-diethyl-fluoromethyltamoxifen], in the data set on MCF7 cells, the “Potency against MCF7 compared with tamoxifen” value was 3 fold and the “Tumor cell inhibition (in words)” value was “more potent than the trans isomers”.

For `CC/C(=C(/c1ccccc1)c1ccc(OCCN2CC2)cc1)c1ccccc1` (single isomer, unassigned) [cis isomer of tamoxifen azizidine], the “Decrease in estrogen receptor binding affinity” value at estrogen receptor [3] (versus trans isomer or native tamoxifen) is 50 fold.

On to `CCN(CC)CCOc1ccc(/C(=C(/CCCO)c2ccccc2)c2ccccc2)cc1` [III (trans), N,N-diethyl-hydroxymethyltamoxifen], for which the “RP (relative potency)” value in the data set with MCF7 cells was 50. The “RBA (relative binding affinity)” value on estrogen receptor [1] turned out to be 400.

`CCN(CC)CCOc1ccc(/C(=C(/CCF)c2ccccc2)c2ccccc2)cc1` [IV (trans), N,N-diethyl-fluorotamoxifen]: the “Enhancement” value on estrogen receptor [1] is “two and a half times”.

`CCN(CC)CCOc1ccc(C(=C(CCCBr)c2ccccc2)c2ccccc2)cc1` [Compound XI, 1-[4-(2-Diethylaminoethoxy)phenyl]-1,2-diphenyl-5-bromo-1-entene]: the “Potency against MCF7 compared with tamoxifen” value with MCF7 cells was around 25 fold. Besides, the “Estrogen receptor binding (in words)” value was “binds to estrogen receptors with greater affinity than the other halogenated tamoxifen analogs tested” at estrogen receptor [1] (listed as Bromomethyl tamoxifen) and “bind to estrogen receptors greater than other halogenated tamoxifens tested” at estrogen receptor [1] (listed as bromomethyl-Tx).

Regarding `CCN(CC)CCOc1ccc(/C(=C(/CCCBr)c2ccccc2)c2ccccc2)cc1` [(XI) BrM (trans), N,N-diethyl-bromomethyltamoxifen], at estrogen receptor [1], the “RBA (IC50 ratio between tamoxifen and competitor)” value is 150; the “Enhancement” value came out at 50 fold.

Take `CC/C(=C(\c1ccc(I)cc1)c1ccc(OCCN(C)C)cc1)c1ccccc1` [Compound 4-iodo]: the “Estrogen receptor binding / detection potency (in words)” value on estrogen receptor [3] is given as “greater potency than tamoxifen”.

The molecule fluorotamoxifen [trans^18 F-FTX] had a Maximum dose tolerated in data set [2] of 200 mg/kg.

`CCN(CC)CCOc1ccc(/C(=C(/CCCCl)c2ccccc2)c2ccccc2)cc1` [(XII) ClM (trans), N,N-diethyl-chloromethyltamoxifen]: on estrogen receptor [1] (read-out: IC50 estrogen receptor binding, pig uterus, [3H]estradiol 5 nM), the IC50 was 400 nM.

Take `CC/C(=C(\c1ccc(O)cc1)c1ccc(OCCN(C)C)cc1)c1ccccc1` [4-hydroxytamoxifen]: the “Anti-estrogenic / in vivo activity (in words)” value in data set [4] is given as “less effective than tamoxifen in vivo”.

`CCN(CC)CCOc1ccc(/C(=C(\CCCBr)c2ccccc2)c2ccccc2)cc1` [cis-BTX]: the MTD in data set [2] is 50 mg/kg.

On to `CC/C(=C(\c1ccc(OC)cc1)c1ccc(OCCN(C)C)cc1)c1ccccc1` [4-methoxy phenyl derivative], for which, in data set [4], the “Anti-estrogenic / in vivo activity (in words)” value is “about the same as native tamoxifen”.
